PMC10781691, “Vertical pathway inhibition of receptor tyrosine kinases and BAD with synergistic efficacy in triple negative breast cancer” (NPJ Precision Oncology, 2024)

Key:
[1] = system: 4T1-luciferase homografts; experiment: Orthotopic syngeneic homograft, combination study; assay type: in vivo; conditions: BALB/c mice, day 16; NCK 20 mg/kg, OSI 50 mg/kg, CRI 50 mg/kg
Protocol: In vivo bioluminescent imaging was performed to determine the incidence and metastatic burden of luciferase-labeled 4T1 cells. Mice were injected i.p. with 10 mg/ml of D-luciferin (Gold Biotechnology, MO, USA) and imaged using a PerkinElmer IVIS Spectrum system. PDX were generated as previously described by transplanting fresh fragments orthotopically into 8-week-old female nonobese diabetic (NOD)/severe combined immunodeficient (SCID) mice (Beijing Vital River Laboratory Animal Technology Co., Beijing, China) (P1, passage 1)[40]. The P1 xenografts were then fragmented, digested into single-cell suspension and implanted into mammary fat pad (100 μL PBS containing growth factor reduced 50% Matrigel) of NOD/SCID mice. Once orthotopic xenografts reached an approximate size of 100 mm^3, the mice were randomly divided into three groups (n = 8) for single drug studies and six groups (n = 6) for combination studies and Kaplan-Meier (KM) analyses. […] Animal body weight and xenograft size were measured daily using an electronic balance and a digital caliper, respectively. Xenograft volume (mm^3) was calculated by using the formula: 0.52 × length × [width]^2. Complete response (CR) was achieved if the average xenograft volume for the treatment group was unable to be determined for two or more consecutive measurements. Partial response (PR) was achieved if the average xenograft volume reduced to <50 mm^3 for two or more consecutive measurements. After 3-week drug treatment, all mice were sacrificed by CO2 inhalation. Tumor and vital organs were weighed and isolated for further analysis. IHC analysis of xenograft histology sections and quantitative polymerase chain reaction (qPCR) were performed as previously described. […]
model was measured every day and calculated by using the formula: 0.52 × length × [width]2.
The animal weight of each treatment group is indicated. […]
treatment group after sacrifice on the 15th day of treatment. (C) Bioluminescence of homografts from mice orthotopically implanted with 4T1-luciferase cells. (D) Resected homografts from each treatment group.
(F) Histological analyses and IRS scoring of pBAD at Ser99, BAD, MKI67, and TUNEL staining in homografts. Scale bar, 20 µm. […]
kidney weights (%, organ body index) and colon length of BALB/c mice administrated with […]
represent means ± SD ( n=6).*P < 0.05, **P < 0.01, and ***P < 0.001.

USTC-0 PDX = experiment: TNBC patient-derived xenograft; assay type: in vivo, NOD/SCID mice; conditions: for survival of PDX-bearing mice / Median survival: USTC-0; for survival of PDX-bearing mice: single agents vs vehicle, combinations vs OSI-930 or Crizotinib alone; for Median survival: vehicle 25.5
Protocol: (§1) The effect of drug treatments on two patient-derived xenograft (PDX) models of TNBC, USTC-0 and USTC-1 were next examined. The use of the USTC-1 PDX was previously reported.
(§2) In vivo bioluminescent imaging was performed to determine the incidence and metastatic burden of luciferase-labeled 4T1 cells. Mice were injected i.p. with 10 mg/ml of D-luciferin (Gold Biotechnology, MO, USA) and imaged using a PerkinElmer IVIS Spectrum system. PDX were generated as previously described by transplanting fresh fragments orthotopically into 8-week-old female nonobese diabetic (NOD)/severe combined immunodeficient (SCID) mice (Beijing Vital River Laboratory Animal Technology Co., Beijing, China) (P1, passage 1)[40]. The P1 xenografts were then fragmented, digested into single-cell suspension and implanted into mammary fat pad (100 μL PBS containing growth factor reduced 50% Matrigel) of NOD/SCID mice. Once orthotopic xenografts reached an approximate size of 100 mm^3, the mice were randomly divided into three groups (n = 8) for single drug studies and six groups (n = 6) for combination studies and Kaplan-Meier (KM) analyses. […] Animal body weight and xenograft size were measured daily using an electronic balance and a digital caliper, respectively. Xenograft volume (mm^3) was calculated by using the formula: 0.52 × length × [width]^2. Complete response (CR) was achieved if the average xenograft volume for the treatment group was unable to be determined for two or more consecutive measurements. Partial response (PR) was achieved if the average xenograft volume reduced to <50 mm^3 for two or more consecutive measurements. After 3-week drug treatment, all mice were sacrificed by CO2 inhalation. Tumor and vital organs were weighed and isolated for further analysis. IHC analysis of xenograft histology sections and quantitative polymerase chain reaction (qPCR) were performed as previously described. […] For PDX, xenograft growth was monitored daily by measurement of the xenograft volume until mice humane endpoint ( ~ 1000 mm^3).

USTC-1 PDX = experiment: TNBC patient-derived xenograft; assay type: in vivo, NOD/SCID mice; conditions: for Median survival: USTC-1, vehicle 22.5
Protocol: as §1, §2

With Oc1ccccc1C(c1cccnc1)N1CCN(c2cccc(Cl)c2Cl)CC1 (centres unmarked) [NCK, 2-((4-(2,3-dichlorophenyl)piperazin-1-yl)(pyridin-3-yl)methyl) phenol] the “Colon Length” value [1] was 9.02±1.54 cm, the “Relative Heart Weight” value [1] was 0.61±0.11% and the “Relative Kidney Weight” value [1] was 1.40±0.16%. The “Relative Liver Weight” value [1] was 4.98±0.21%, the “Relative Lung Weight” value [1] was 0.87±0.11% and the “Relative Spleen Weight” value [1] was 2.24±0.40%. The PDX xenograft volume (USTC-0 PDX; USTC-0, 21 days treatment) was “significantly reduced the xenograft volume”, the “reduction in xenograft burden vs vehicle” value (USTC-0 PDX; USTC-0, 21 days treatment) was 66.0% and the “survival of PDX-bearing mice” value (USTC-0 PDX) was “markedly extended the survival”. For the same molecule, the Median survival (USTC-0 PDX) was 42.0 days, the PDX xenograft volume (USTC-1 PDX; USTC-1, 21 days treatment) was “significantly reduced the xenograft volume” and the “reduction in xenograft burden vs vehicle” value (USTC-1 PDX; USTC-1, 21 days treatment) was 45.6%. For the same molecule, the Median survival (USTC-1 PDX) was 34.5 days.

In the case of O=C(Nc1ccc(OC(F)(F)F)cc1)c1sccc1NCc1ccnc2ccccc12 [OSI-930], the “Colon Length” value [1] is reported as 9.33±1.26 cm, the “Relative Kidney Weight” value [1] is reported as 1.34±0.02% and the PDX xenograft volume (USTC-0 PDX; USTC-0, 21 days treatment) is reported as “significantly reduced the xenograft volume”. The “survival of PDX-bearing mice” value (USTC-0 PDX) was “markedly extended the survival”, the Median survival (USTC-0 PDX) was 34.0 days and the PDX xenograft volume (USTC-1 PDX; USTC-1, 21 days treatment) was “significantly reduced the xenograft volume”. For the same molecule, the Median survival (USTC-1 PDX) was 29.5 days.
